The experiment concerns IL-1b. Put plainly: Human Monocyte IL-1b Assay (fresh human whole blood, LPS priming, ATP stimulation, ELISA). The experiment is classed as cell-based. The settings on record: read-out: IL-1b (IC50). On the procedure: Serially diluted testing compounds were incubated with […] of fresh human whole blood for 0.5 hours. Cells were primed with 100 ng/mL lipopolysaccharide (LPS) for 3.5 hours at 37° C. followed by stimulation with 5 mM ATP for an additional 45 minutes. The concentration of IL-1b concentration in the supernatant was determined with commercially available ELISA kits. Negative controls are wells without stimulation, while positive controls are wells with stimulation but only DMSO without compounds added. After background subtraction, compound treatment wells were then normalized to the positive controls for IC50 calculations.

Where [1] appears, read: fresh human whole blood, 100 ng/mL LPS 3.5 hours, then 5 mM ATP 45 minutes, IL-1b in supernatant by ELISA.

Like-named read-outs stand apart in the source and are kept apart here.

`Cc1cc(C)c(-c2nnc(N[C@@H]3CCCN(C)C3)c3ccccc23)c(O)c1` [Compound 1, 3,5-dimethyl-2-(4-(((R)-1-methylpiperidin-3-yl)amino)phthalazin-1-yl)phenol]: the IC50 under setting [1] was less than 300 nM.

In the case of `Cc1ccc(-c2nnc(N[C@@H]3CCCN(C)C3)c3ccccc23)c(O)c1` [Compound 2, (R)-5-methyl-2-(4-((1-methylpiperidin-3-yl)amino)phthalazin-1-yl)phenol], the half-maximal inhibitory concentration (IC50) under setting [1] was less than 300 nM.

`CN1CCC[C@@H](Nc2nnc(-c3ccc4c(c3O)CCC4)c3ccccc23)C1` [Compound 4, (R)-5-(4-((1-methylpiperidin-3-yl)amino)phthalazin-1-yl)-2,3-dihydro-1H-inden-4-ol]: the IC50 under setting [1] was less than 300 nM.

As for `Cc1cc(O)c(-c2nnc(N[C@@H]3CCCN(C)C3)c3ccccc23)cc1F` [Compound 5, (R)-4-fluoro-5-methyl-2-(4-((1-methylpiperidin-3-yl)amino)phthalazin-1-yl)phenol], the half-inhibitory concentration (IC50) under setting [1] is less than 300 nM.

As to `CCOC(=O)c1cc(C)ccc1-c1nnc(N[C@@H]2CCCN(C)C2)c2ccccc12` [Compound 6, ethyl (R)-5-methyl-2-(4-((1-methylpiperidin-3-yl)amino)phthalazin-1-yl)benzoate], under setting [1], the IC50 fell in the range of 3000 to 10000 nM.

For `Cc1cc(C)c(-c2nnc(N[C@@H]3CCCN(C)C3)c3c2CCC3)c(O)c1` [Compound 7, 3,5-dimethyl-2-(4-(((R)-1-methylpiperidin-3-yl)amino)-6,7-dihydro-5H-cyclopenta[d]pyridazin-1-yl)phenol], the IC50 under setting [1] was less than 300 nM.

`Cc1ccc(-c2nnc(N[C@@H]3CCCN(C)C3)c3c2CCC3)c(O)c1` [Compound 8, (R)-5-methyl-2-(4-((1-methylpiperidin-3-yl)amino)-6,7-dihydro-5H-cyclopenta[d]pyridazin-1-yl)phenol]: under setting [1], the IC50 was less than 300 nM.

Regarding `Cc1ccc(-c2nnc(N[C@@H]3CCCN(C)C3)c3c2CCC3)c(O)c1F` [Compound 10, (R)-2-fluoro-3-methyl-6-(4-((1-methylpiperidin-3-yl)amino)-6,7-dihydro-5H-cyclopenta[d]pyridazin-1-yl)phenol], under setting [1], the IC50 was less than 300 nM.

For the molecule `Cc1ccc(-c2nnc(N[C@@H]3CCCN(C)C3)c3c2CCCC3)c(O)c1` [Compound 11, (R)-5-methyl-2-(4-((1-methylpiperidin-3-yl)amino)-5,6,7,8-tetrahydrophthalazin-1-yl)phenol], the IC50 under setting [1] is less than 300 nM.

On to `Cc1ccc(-c2nnc(N(C)[C@@H]3CCCN(C)C3)c3ccccc23)c(O)c1` [Compound 12, (R)-5-methyl-2-(4-(methyl(1-methylpiperidin-3-yl)amino)phthalazin-1-yl)phenol], for which, under setting [1], the IC50 is 300 to 3000 nM.

For the molecule `Cc1cc(C)c(-c2nnc(N[C@@H]3CCCN(C)C3)n3cccc23)c(O)c1` [Compound 13, (R)-3,5-dimethyl-2-(4-((1-methylpiperidin-3-yl)amino)pyrrolo[1,2-d][1,2,4]triazin-1-yl)phenol], under setting [1], the IC50 is less than 300 nM.

In the case of `Cc1cc(O)c(-c2nnc(N[C@@H]3CCCN(C)C3)n3cccc23)c(F)c1` [Compound 14, (R)-3-fluoro-5-methyl-2-(4-((1-methylpiperidin-3-yl)amino)pyrrolo[1,2-d][1,2,4]triazin-1-yl)phenol], the IC50 under setting [1] was less than 300 nM.

For `CN1CCC[C@@H](Nc2nnc(-c3ccc(C(F)(F)F)cc3O)c3ccsc23)C1` [Compound 19, (R)-2-(7-((1-methylpiperidin-3-yl)amino)thieno[2,3-d]pyridazin-4-yl)-5-(trifluoromethyl)phenol], the concentration for half-maximal inhibition (IC50) under setting [1] was less than 300 nM.

With `CN1CCC[C@@H](Nc2nnc(-c3ccc(C(F)(F)F)cc3O)c3sccc23)C1` [Compound 20, (R)-2-(4-((1-methylpiperidin-3-yl)amino)thieno[2,3-d]pyridazin-7-yl)-5-(trifluoromethyl)phenol], the IC50 under setting [1] is less than 300 nM.

As to `Cc1ccc(-c2nnc(N[C@@H]3CCCN(C)C3)c3cscc23)c(O)c1` [Compound 21, (R)-5-methyl-2-(4-((1-methylpiperidin-3-yl)amino)thieno[3,4-d]pyridazin-1-yl)phenol], the IC50 under setting [1] was less than 300 nM.

With `CN1CCC[C@@H](Nc2nnc(-c3ccc(C(F)(F)F)cc3O)c3cscc23)C1` [Compound 22, (R)-2-(4-((1-methylpiperidin-3-yl)amino)thieno[3,4-d]pyridazin-1-yl)-5-(trifluoromethyl)phenol], under setting [1], the IC50 is less than 300 nM.

Regarding `Cc1ccc(-c2nnc(OC3CCCN(C)C3)c3ccccc23)c(O)c1` (centres unmarked) [Compound 23, 5-methyl-2-(4-((1-methylpiperidin-3-yl)oxy)phthalazin-1-yl)phenol], where the note is “Homo sapiens”, the IC50 lay in the range of 300 to 3000 nM.

Take `Cc1ccc(-c2nnc(N[C@@H]3CCCN(C)C3)n3cccc23)c(O)c1` [Compound 24, (R)-5-methyl-2-(4-((1-methylpiperidin-3-yl)amino)pyrrolo[1,2-d][1,2,4]triazin-1-yl)phenol]: the IC50 under setting [1] is less than 300 nM.

`Cc1cc(O)c(-c2nnc(N[C@@H]3CCCN(C)C3)n3cccc23)cc1F` [Compound 26, (R)-4-fluoro-5-methyl-2-(4-((1-methylpiperidin-3-yl)amino)pyrrolo[1,2-d][1,2,4]triazin-1-yl)phenol]: under setting [1], the concentration for half-maximal inhibition (IC50) is 300 to 3000 nM.

On to `CN1CCC[C@@H](Nc2nnc(-c3ccc4c(c3O)CCC4)c3cccn23)C1` [Compound 27, (R)-5-(4-((1-methylpiperidin-3-yl)amino)pyrrolo[1,2-d][1,2,4]triazin-1-yl)-2,3-dihydro-1H-inden-4-ol], for which, under setting [1], the IC50 fell in the range of 300 to 3000 nM.

For the origin of these results see patent US20240327413A1, “NLRP3 MODULATORS” (Zomagen Biosciences Ltd, priority 2021, published 2024).
